The subject of the data set is HEK293 NF-kB-luciferase reporter cells. Put plainly: NF-kB luciferase reporter activity, robust Z-score vs plate median (robust Z-score (log luminescence)); higher = stronger NF-kB reporter activation. The conditions noted are these: TNF treatment time 8.5 h, transfection time 72 h. The protocol:
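Primary screen of an Ambion Pre-miR miRNA mimic library (miRBase v8.0, 1.6 pmol/well, 384-well, duplicate) reverse-transfected into HEK293 cells stably expressing a 5x NF-kB firefly luciferase reporter. After 72 h the cells were treated with vehicle or TNF (40 ng/mL) for 8.5 h and luminescence was read (BriteLite). Raw luminescence was log-transformed and converted to a robust Z-score per plate: (x - plate median)/plate MAD. Sequence given is the mature miRNA strand of the double-stranded mimic.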
(In general: Reporter assays use an easily measured gene product as a stand-in for the process of interest.)

± gives the standard deviation of the averaged measurements.

Turning to CAAAGUGCCUCCCUUUAGAGUGU, the “NF-kB luciferase reporter activity” value is, setting by setting: (TNF 0 ng/mL) 0.645 ± 0.51; (TNF 40 ng/mL) 0.811 ± 0.028.
Taken in the same sequence, the figures for CAACGGAAUCCCAAAAGCAGCU were 0.539 ± 0.19 and 1.2 ± 0.21.
For CACCCGUAGAACCGACCUUGCG, in that order: -0.634 ± 0.41 and 0.175 ± 0.09.
Take CACUCAGCCUUGAGGGCACUUUC: the “NF-kB luciferase reporter activity” value (TNF 0 ng/mL) is -0.36 ± 0.51 and the “NF-kB luciferase reporter activity” value (TNF 40 ng/mL) came to 1.02 ± 0.045.
As for CAGCAGCAAUUCAUGUUUUGAA, the “NF-kB luciferase reporter activity” value was 1.16 ± 0.43 (TNF 0 ng/mL) and 0.65 ± 0.09 (TNF 40 ng/mL).
For CAGCAGCACACUGUGGUUUGU, in that order: 0.765 ± 0.17 and 0.0663 ± 0.052.
For CAGUGCAAUAGUAUUGUCAAAGC, in that order: 0.753 ± 0.32 and 0.85 ± 0.028.
Taken in the same sequence, the figures for CAGUGCAAUGAUGAAAGGGCAU were 1.21 ± 0.24 and 1.237 ± 0.0041.
On to CAUCCCUUGCAUGGUGGAGGGU, for which the “NF-kB luciferase reporter activity” value runs as follows: (TNF 0 ng/mL) 0.67 ± 0.24; (TNF 40 ng/mL) 0.53 ± 0.0024.
For CAUCUGGAGGUAAGAAGCACUUU, in that order: 0.889 ± 0.59 and -1.17 ± 0.072.
Taken in the same sequence, the figures for CAUCUUACCGGACAGUGCUGGA were -1.28 ± 0.79 and -0.895 ± 0.12.
For CCACACCGUAUCUGACACUUU, in that order: -0.604 ± 0.17 and 0.0155 ± 0.04.
As for CCACUGCCCCAGGUGCUGCUGG, the “NF-kB luciferase reporter activity” value is, setting by setting: (TNF 0 ng/mL) 0.831 ± 0.013; (TNF 40 ng/mL) -0.0587 ± 0.18.
Taken in the same sequence, the figures for CCCAGAUAAUGGCACUCUCAA were -0.57 ± 0.39 and -0.306 ± 0.12.
For CCCAGUGUUUAGACUAUCUGUUC, in that order: -0.547 ± 0.91 and -0.613 ± 0.27.
For CCUAGUAGGUGUCCAGUAAGUGU, in that order: -0.0662 ± 0.93 and 0.432 ± 0.025.
As to CCUCUAGAUGGAAGCACUGUCU, the “NF-kB luciferase reporter activity” value (TNF 0 ng/mL) was -0.0988 ± 0.27 and the “NF-kB luciferase reporter activity” value (TNF 40 ng/mL) was determined as 0.749 ± 0.033.
For CCUCUGGGCCCUUCCUCCAG, the “NF-kB luciferase reporter activity” value is, setting by setting: (TNF 0 ng/mL) 2.88 ± 0.89; (TNF 40 ng/mL) -0.776 ± 0.1.
Taken in the same sequence, the figures for CGAAUGUUGCUCGGUGAACCCCU were -1.7 ± 0.2 and -2.17 ± 0.28.
For CGCAUCCCCUAGGGCAUUGGUGU, in that order: -0.887 ± 0.054 and -0.479 ± 0.1.
For CGGGUGGAUCACGAUGCAAUUU, in that order: 0.731 ± 0.46 and -2.0207 ± 0.0002.
In the case of CUACAAAGGGAAGCACUUUCUC, the “NF-kB luciferase reporter activity” value runs as follows: (TNF 0 ng/mL) -1.11 ± 0.64; (TNF 40 ng/mL) -1.63 ± 0.19.
Taken in the same sequence, the figures for CUCCAGAGGGAAGUACUUUCU were -1.38 ± 1.7 and -1.33 ± 0.13.
For CUCCAGAGGGAUGCACUUUCU, in that order: -1.38 ± 0.64 and -1.09 ± 0.051.
Taken in the same sequence, the figures for CUCCUGACUCCAGGUCCUGUGU were 1.44 ± 0.61 and 1.21 ± 0.14.
CUCUAGAGGGAAGCACUUUCU: the “NF-kB luciferase reporter activity” value (TNF 0 ng/mL) was 0.466 ± 0.17 and the “NF-kB luciferase reporter activity” value (TNF 40 ng/mL) stood at 0.664 ± 0.074.
Taken in the same sequence, the figures for CUCUAGAGGGAAGCACUUUCUCU were 1.17 ± 0.88 and 0.571 ± 0.12.
For the sequence CUCUAGAGGGAAGCGCUUUCUGUU, the “NF-kB luciferase reporter activity” value was determined as 1.69 ± 0.18 (TNF 0 ng/mL) and 0.579 ± 0.019 (TNF 40 ng/mL).
For CUCUUGAGGGAAGCACUUUCUGUU, in that order: 1.14 ± 0.36 and 0.555 ± 0.059.
For CUGACCUAUGAAUUGACAGCC, in that order: -0.152 ± 0.091 and -0.0202 ± 0.12.
For CUGCAAAGGGAAGCCCUUUCU, in that order: -0.197 ± 1 and -0.78 ± 0.054.
As to CUGGACUUAGGGUCAGAAGGCC, the “NF-kB luciferase reporter activity” value runs as follows: (TNF 0 ng/mL) 0.0764 ± 0.11; (TNF 40 ng/mL) 0.411 ± 0.022.
CUGGACUUGGAGUCAGAAGGCC: the “NF-kB luciferase reporter activity” value reads like this: (TNF 0 ng/mL) -1.02 ± 0.24; (TNF 40 ng/mL) -0.191 ± 0.11.
For CUGGAUGGCUCCUCCAUGUCU, in that order: 0.547 ± 0.21 and -0.772 ± 0.095.
For CUGGCCCUCUCUGCCCUUCCGU, in that order: 0.704 ± 0.42 and -0.112 ± 0.19.
